In patent US7381429B2, “Extracts from sophora species, method for producing the same and their use” (Dr. Willmar Schwabe GmbH & Co., priority 2000, dated 2008):

Columns and labels:
Ishikawa-Var-I cells = details: cited from earlier work
[1] = target: T1, human α oestrogen receptor (Homo sapiens, UniProt P03372); assay: Reportergen assay for oestrogenic activity with transfected yeast cells; format: cell-based; details: yeast cells expressing human α oestrogen receptor, β galactosidase reporter, 72 hours at 32° C.
T1 construct: expressed in transfected cells; host or cells: yeast cells (saccharomyces)
T1 sequence (P03372 1-595): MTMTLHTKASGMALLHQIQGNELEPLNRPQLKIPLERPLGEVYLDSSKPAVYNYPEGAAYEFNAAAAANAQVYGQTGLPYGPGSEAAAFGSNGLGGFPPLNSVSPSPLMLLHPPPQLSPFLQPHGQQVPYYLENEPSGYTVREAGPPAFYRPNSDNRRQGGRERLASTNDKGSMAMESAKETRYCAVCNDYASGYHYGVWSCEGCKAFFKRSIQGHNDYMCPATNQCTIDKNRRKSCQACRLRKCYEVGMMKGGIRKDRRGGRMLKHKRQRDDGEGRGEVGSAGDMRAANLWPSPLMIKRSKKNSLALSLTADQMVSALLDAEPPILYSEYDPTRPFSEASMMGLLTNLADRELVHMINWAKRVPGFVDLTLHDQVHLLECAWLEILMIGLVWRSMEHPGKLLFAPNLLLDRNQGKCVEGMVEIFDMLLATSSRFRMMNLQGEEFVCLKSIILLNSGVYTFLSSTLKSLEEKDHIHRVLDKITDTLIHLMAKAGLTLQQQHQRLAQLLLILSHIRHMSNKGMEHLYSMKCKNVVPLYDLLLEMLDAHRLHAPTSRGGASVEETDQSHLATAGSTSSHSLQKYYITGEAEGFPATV
Experimental: Testing the ethylacetate extracts produced for oestrogenic activity with transfected yeast cells, which express the human α oestrogen receptor.
The testing of extracts for oestrogenic properties was performed with a Reportergen assay, using yeast cells (saccharomyces). These cells are stable with the human α oestrogen receptor and an expression plasmid which contains an oestrogen response element and the gene for the enzyme β galactosidase. All samples were dissolved in DMSO at a concentration of 20 mg/ml, and were given undiluted or after diluting with DMSO at the ratio of 1/10, 1/100 or at a volume of 1 μl to 100 μl culture medium in 96-well flat-bottom micro-titre dishes. Next, 100 μl yeast suspension and the chromogenous substrate chlorophenolred-β-D-galactopyranoside were added. […] The yeast cells were incubated for 72 hours at 32° C., after which absorption of the medium was measured at 540 nm in a micro-titre dish photometer. The samples were sometimes checked twice.

[2] = animal studies; cited from earlier work

For `CC(C)=CCc1c(O)cc(O)c2c1O[C@H](c1ccc(O)cc1)CC2=O` [8-prenylnaringenine], the “oestrogenic effect compared with 17β oestradiol” value (Ishikawa-Var-I cells; versus 17β oestradiol) is given as “only a slightly weaker effect than 17β oestradiol” and the “oestrogenic potency compared with known phyto-oestrogens” value (Ishikawa-Var-I cells; versus coumestrol, genistein or daidzein) is given as “significantly more active than the phyto-oestrogens known so far”.
For `OC[C@H]1O[C@@H](Oc2ccc3c(c2)OC[C@H]2c4cc5c(cc4O[C@@H]32)OCO5)[C@H](O)[C@@H](O)[C@@H]1O` [maackiain glucoside], the “oestrogenic activity in yeast assay” value [1] was “relevant to the effectiveness of the extract”.
For `Oc1ccc2c(c1)OC[C@H]1c3cc4c(cc3O[C@@H]21)OCO4` [maackiain], the “oestrogenic activity in yeast assay” value [1] was “relevant to the effectiveness of the extract”.
In the case of `O=C1CCC[C@@H]2[C@H]3CCC[N+]4([O-])CCC[C@@H](CN12)[C@@H]34` (some centres unmarked) [oxymatrine], the toxic effects [2] is listed as “toxic effects could be shown”.
